Measured values as given in patent US20260297031A1, “HYDROXYLAMINE-BASED BCR-ABL1 INHIBITORS FOR TREATMENT OF CANCER” (University of Georgia Research Foundation, Inc., priority 2023, published 2026).
Values after ≈ are worked out from the molar mass of the structure shown.

Legend:
BCR-ABL1 Y253F = biological target: T1, BCR-ABL1 Y253F (Homo sapiens, UniProt P00519, Y253F); experiment: KinaseProfiler radiometric kinase assay, BCR-ABL1 Y253F; type: biochemical; conditions: [ATP] = 10 μM; mean of n = 2
T1 construct: BCR (fusion partner, as the printed name BCR-ABL1 says)

mutant BCR-ABL1 = experiment: KinaseProfiler radiometric kinase assay, mutant BCR-ABL1 kinases as a group; type: biochemical, human; conditions: for IC50: read-out: IC50 against (imatinib resistant / relevant) mutant BCR-ABL1 kinases, group of mutants
Description: Biochemical Human RTK Kinase Enzymatic Radiometric Assay, KinaseProfiler (Independently Performed by Eurofins Cerep SA, FR)

Aqueous solubility = experiment: Aqueous solubility
Procedure: Solubility Determinations (Independently Performed by Pharmaron Inc., Ninqbo, CN)
Test compounds and control compounds (progesterone or diclofenac) were initially prepared as 10 mM DMSO stock solutions. […] After such time, plugs and stir sticks were removed and the samples from the solubility sample plate were transferred into the filter plate. All the samples were then filtered and 5 μL of filtrate was taken and added along with 5 μL of DMSO and 490 μL of a 1:1 (v/v) mixture of H2O and acetonitrile containing internal standard (100 nM alprazolam, 200 nM Caffeine and 100 nM tolbutamide) to the plate yielding a final concentration of 3 μM. The samples were then analyzed by LC-MS and diluted according to the peak shape with ultrapure water.
Filtrate was analyzed and quantified against a standard of known concentration using LC coupled with MS peak identification and quantitation. Solubility values of test compounds and progesterone were calculated as follows and are presented as the mean of n=2 replicates: […]

[1] = Metabolic stability in rat liver microsomes; type: in vitro ADME; conditions: rat liver microsomes
Procedure: Metabolic Stability in Liver Microsomes (Independently Performed by Pharmaron Inc., Ninqbo, CN)
This experiment was carried out under two separate set of conditions: i) with Cofactors (NADPH), which consisted of adding 25 μL of 10 mM NADPH to the incubations, giving a final NADPH concentration of 1 mM, and ii) without Cofactors (NADPH), which consisted of adding 25 μL of 100 mM phosphate buffer to the incubations. Under both sets of conditions, the final concentration of microsomes were 0.5 mg/mL. […] Samples were then centrifuged at 3,220 g for 40 min and aliquots of 100 μL of the supernatant were mixed with 100 μL of ultra-pure H2O and analyzed by LC-MS/MS.
Peak areas were determined from extracted ion chromatograms. The slope value, k, was determined by linear regression of the natural logarithm of the remaining percentage of the parent drug vs incubation time curve.

MDCKII-MDR1 cells = experiment: MDCKII-MDR1 permeability
Procedure: MDCKII-MDR1 Permeability (Independently Performed By: Pharmaron Inc., Ninqbo, CN)
To each well of the Transwell insert and reservoir were added 50 μL and 25 mL of cell culture medium, respectively.
To determine the rate of drug transport in the apical to basolateral direction, 125 μL of the working solution of either test compounds or control compounds was added to the Transwell insert (apical compartment) and a 50 μL sample was immediately transferred from the apical compartment to 200 μL of acetonitrile containing internal standard (100 nM alprazolam, 200 nM caffeine, and 100 nM tolbutamide) in a new 96-well plate as the initial donor sample (A-B). The sample was then vortexed at 1,000 rpm for 10 min. The receiver plate (basolateral compartment) wells were then filled with 235 μL transport buffer. To determine the rate of drug transport in the basolateral to apical direction, 285 μL of the working solution of either test compounds or control compounds was added to the receiver plate (basolateral compartment) wells and a 50 μL of sample was immediately transferred from the basolateral compartment to 200 μL of acetonitrile containing internal standard in a new 96-well plate as the initial donor sample (B-A). The sample was vortexed for 10 min at 1,000 rpm. The Transwell insert (apical compartment) was then filled with 75 μL of transport buffer and the apical to basolateral direction and the basolateral to apical direction were done at the same time. […] After incubation, 50 μL samples from donor sides (apical compartment for Ap→BI flux, and basolateral compartment BI→Ap) and receiver sides (basolateral compartment for Ap→BI flux, and apical compartment for BI→Ap) were transferred to wells of a new 96-well plate, followed by the addition of 200 μL acetonitrile containing internal standard. […] An aliquot of 100 μL of the supernatant was mixed with an appropriate volume of ultra-pure water before LC-MS/MS analysis.
To monitor for monolayer integrity, Lucifer yellow leakage was determined after the 2 h transport period. This began by preparing a stock solution of Lucifer yellow in DMSO and diluted with HBSS (10 mM HEPES, pH 7.4.) to reach a final concentration of 100 μM. To each Transwell insert (apical compartment) was then added 100 μL of the Lucifer yellow solution, followed by filling the wells in the receiver plate (basolateral compartment) with 300 μL of HBSS (10 mM HEPES, pH 7.4).
The efflux ratio was determined using the following equation: […]

[2] = Plasma protein binding by equilibrium dialysis, mouse plasma; type: in vitro ADME, mouse (CD-1); conditions: 360 min, 5 µM
Procedure: Plasma Protein Binding by Equilibrium Dialysis (Independently Performed by Pharmaron Inc., Ninqbo, CN)
Initially, 1 mM solutions of test compounds and the control compound (Ketoconzaole) were prepared in DMSO. After this, dialysis membranes were soaked in ultrapure water for 60 min to separate strips, followed by 20% aq. ethanol for 20 min, and finally in a dialysis buffer for 20 min. […] After this, 597 μL of blank plasma solution followed by 3 μL of the working solutions of either test compounds or control compound were added to a new plastic plate or separate plastic tube and the solutions were vortexed at 1,000 rpm for 2 min. Immediately after this, 50 μL of spiked plasma solution suspension was transferred to a 96-well plate to act as T=0 control. The remaining samples were treated in the same manner, whereby all remaining spiked plasma solutions were added to the incubator for the duration of the study.
Cells were then loaded with 120 μL of the plasma samples and dialyzed against an equal volume of dialysis buffer (PBS). […] The samples were analyzed by LC-MS/MS and 100 μL of distilled water was added to each sample prior to analysis.
Concentrations of test compounds and control compound in buffer and plasma solution chambers was determined and percentages of test compounds and control compound bound using the following equations (mean of n=2 replicates): […]

Row | SMILES | IC50 (BCR-ABL1 Y253F) [nM] | BCR-ABL1 kinase activity, in words (mutant BCR-ABL1) | IC50 (mutant BCR-ABL1) [nM] | solubility kinetic at 2 h (Aqueous solubility; phosphate buffer, pH 7.4, aqueous buffer) [µM] | half-life at 1 µM [1] [min] | microsomal CLint at 1 µM ([1]; read-out: LMCIint (rate of metabolism)) [µL/min/mg] | efflux (P-gp), in words (MDCKII-MDR1 cells; MDCKII-MDR1) | solubility, in words (Aqueous solubility) | % Unbound [2] [%] | fold enhancement in permeability (MDCKII-MDR1 cells; MDCKII-MDR1, relative to bosutinib) | permeability in MDCKII-MDR1 cells, in words (MDCKII-MDR1 cells; MDCKII-MDR1)
1 | COc1cc(Nc2c(C#N)cnc3cc(OCCON4CCN(C)CC4)c(OC)cc23)c(F)cc1Cl [Compound 15, 4-((4-chloro-2-fluoro-5-methoxyphenyl)amino)-6-methoxy-7-(2-((4-methylpiperazin-1-yl)oxy)ethoxy)quinoline-3-carbonitrile] | 1 | single-digit nanomolar biochemical activity | < 1 | 43 (≈ 22.2 µg/mL) | 4.9 | 286 | no further improvement in drug efflux was seen |  |  |  | 
2 | COc1cc2c(Nc3cccc(OC)c3Cl)c(C#N)cnc2cc1OCCON1CCN(C)CC1 [Compound 17, 4-((2-Chloro-3-methoxyphenyl)amino)-6-methoxy-7-(2-((4-methylpiperazin-1-yl)oxy)ethoxy)quinoline-3-carbonitrile] |  |  | ≥ 15 |  |  |  | greatly reduced efflux ratio | high aqueous solubility at pH 7.4 | 11.93 | 31 -fold | 
3 | COc1cc(Cl)ccc1Nc1c(C#N)cnc2cc(OCCON3CCN(C)CC3)c(OC)cc12 [Compound 20, 4-((4-Chloro-2-methoxyphenyl)amino)-6-methoxy-7-(2-((4-methylpiperazin-1-yl)oxy)ethoxy)quinoline-3-carbonitrile] |  |  |  |  |  |  | reduced efflux ratios |  | 9.71 |  | markedly improved permeability
